This is an account of results in patent US10456441B2, “Augmenting the immune response by promoting cell death of immune cells” (The University of Vermont and State Agricultural College, priority 2014, dated 2019).

Where a SMILES comes first, the peptide text is derived from it. The star is where a group is joined. Cbz = O=C(OCc1ccccc1)*; CH2F = FC*

The test system of the assay is BMDC. The assay is described as follows: Cytokine production by Borrelia-stimulated BMDC (Bio-Plex). Type of assay: cell-based, mice. Particulars: zVAD, 20 h. On the procedure:
The preparation of bone marrow-derived dendritic cells (BMDC) was done according to the method of Lutz et al. (26) using GM-CSF ([…] PeproTech, Rocky Hill N.J.) or GM-CSF plus IL-4 (10 μg/ml, PeproTech). Cells were used on day 7.
Day 7 γδ T cells and BMDC were cultured either individually or together at a 1:1 ratio (10^6 cells/ml each). To some cultures the following reagents were added: a sonicate of Borrelia burgdorferi (10 μg/ml), zVAD-fmk (MP Biomedical, Santa Ana Calif.) at the doses indicated, necrostatin (50 μM, R&D Systems, Minneapolis, Minn.), anti-TNF-α (10 μg/ml, Calbiochem, Darnstadt, Germany),, anti-IL-1 Receptor antagonist, Anakinra (200 ng/ml, Amgen, Thousand Oaks, Calif.), anti-IL-12 (10 μg/ml, BioLegend San Diego, Calif.), anti-IL-18 (10 μg/ml, MBL, Woburn Mass.), or rat IgG (10 μg/ml Jackson Immunoresearch, West Grove Pa.). Transwell assays were performed using 1×10^6 γδ T cells in 1 ml of complete medium+IL-2 placed in the lower chamber, with 5×10^5 DC in 100 μl placed in the upper chamber. […]
Cytokine levels of IFN-γ, IL-1β, IL-12p40, IL-12p70, IL-17, and TNF-α were detected using the Bio-Plex, MilliPlex, or Luminex immunoassay (Bio-Rad; Millipore-EMD; R&D Systems, Minneapolis, Minn.) according to the manufacturer's protocol. Briefly, samples were run undiluted or diluted 1:10 in RPMI complete media. 50 μl of the magnetic bead working solution was added to each well, then 50 μl of appropriate samples or standards were then added to wells and incubated at room temperature for 30-120 min at 800 rpm on an IKA MS 3 digital shaker. After three washes with 100 μl Bio-Plex wash buffer, incubation with 25 μl of detection antibody solution was done at room temperature for 30-60 min on the shaker. Following another set of three washes, 50 μl of streptavidin-phycoerythrin (PE) in assay buffer was added to each well and incubated as described for the previous step. After an additional three washes, 125 μl of assay buffer was added. Sample data was analyzed with Bio-Plex Manager software.

Turning to `CC(C)[C@H](NC(=O)OCc1ccccc1)C(=O)N[C@@H](C)C(=O)N[C@@H](CC(=O)O)C(=O)CF` [zVAD, N-benzyloxycarbonyl-Val-Ala-Asp-fluoromethyl ketone] (Cbz-Val-Ala-Asp-CH2F), the “BMDC production of IL-1β” value is recorded as “completely inhibited”, the “BMDC production of TNF-α” value was “augmented”, the “production of IL-12 p40 by BMDC” value is on record as “partially inhibited” and the “production of IL-12 p70 by BMDC” value is recorded as “partially inhibited”.
